The target in the assay is T1, Human complement C1s enzyme (Homo sapiens, UniProt P09871).
T1 construct: purified from human serum, Complement Technology, Inc; purchased Complement Technology, Inc; host or cells: human serum (plasma-derived native protein)
T1 sequence (P09871 438-688 limits assumed): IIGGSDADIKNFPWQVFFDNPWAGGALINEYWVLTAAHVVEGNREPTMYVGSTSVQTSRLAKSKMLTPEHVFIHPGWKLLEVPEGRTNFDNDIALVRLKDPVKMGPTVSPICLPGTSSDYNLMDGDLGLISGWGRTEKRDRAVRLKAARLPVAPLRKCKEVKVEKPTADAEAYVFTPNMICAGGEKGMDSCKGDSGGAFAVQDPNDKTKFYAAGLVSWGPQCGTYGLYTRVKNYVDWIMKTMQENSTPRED
T1 sequence (P09871 16-437 partner limits assumed): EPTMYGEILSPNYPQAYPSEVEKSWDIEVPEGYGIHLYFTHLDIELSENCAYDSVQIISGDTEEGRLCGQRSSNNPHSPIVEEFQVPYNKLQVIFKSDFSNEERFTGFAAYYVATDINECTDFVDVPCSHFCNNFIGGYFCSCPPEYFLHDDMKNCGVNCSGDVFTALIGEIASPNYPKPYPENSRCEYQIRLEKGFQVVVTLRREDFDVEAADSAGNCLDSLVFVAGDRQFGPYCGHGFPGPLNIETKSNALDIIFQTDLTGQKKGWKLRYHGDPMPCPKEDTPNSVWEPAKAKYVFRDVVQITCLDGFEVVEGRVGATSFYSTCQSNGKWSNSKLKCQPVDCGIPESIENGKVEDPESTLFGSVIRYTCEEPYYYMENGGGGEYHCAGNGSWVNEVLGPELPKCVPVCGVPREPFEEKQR
As to the kind of experiment: Human C1s enzyme assay. The format is biochemical. The note with it: human complement C1s enzyme 1.16 nM, substrate Z-L-Lys-SBzl, A405; read-out: IC50 (Stars). An outline of the steps: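 Thioesterase activity followed colorimetrically (DTNB, A405, 30-s reads) using 100 μM Z-L-Lys-SBzl substrate. Enzyme, human serum-derived C1s at 1.16 nM final, was incubated with test compound for 5 min, room temperature, pH 7.5 Tris buffer with 1 M NaCl. Rate-versus-concentration data fitted by nonlinear regression for IC50.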

Some results are limits rather than exact numbers.

Regarding `C[C@@H](Nc1cnc(-c2ccc(OCCCCCCCN)cc2)n(CC(=O)NCc2cc3cnccc3[nH]2)c1=O)c1ccc2oc3ccccc3c2c1` [Compound 451, (R)—N-((1H-Pyrrolo[3,2-c]pyridine-2-yl)methyl)-2-(2-(4-((7-aminoheptyl)oxy)phenyl)-5-((1-(dibenzo[b,d]furan-2-yl)ethyl)amino)-6-oxopyrimidin-1(6H)-yl)acetamide], the IC50 is less than 100 nM.

For the compound `C[C@@H](Nc1cnc(-c2ccc(OCCOCCOCCN)cc2)n(CC(=O)NCc2cc3cnccc3[nH]2)c1=O)c1ccc2oc3ccccc3c2c1` [Compound 452, (R)-N-((1H-pyrrolo[3,2-c]pyridin-2-yl)methyl)-2-(2-(4-(2-(2-(2-aminoethoxy)ethoxy)-ethoxy)phenyl)-5-((1-(dibenzo [b,d]furan-2-yl)ethyl)amino)-6-oxopyrimidin-1(6H)-yl)-acetamide], the half-inhibitory concentration (IC50) is less than 100 nM.

Consider `C[C@@H](Nc1cnc(N2CCCCC2)n(CC(=O)NCc2cc3cnccc3[nH]2)c1=O)c1cnc(-c2ccccc2)o1` [Compound 453, (R)—N-((1H-Pyrrolo[3,2-c]pyridine-2-yl)methyl)-2-(6-oxo-5-((1-(2-phenyloxazol-5-yl)ethyl)amino)-2-(piperidin-1-yl)pyrimidin-1(6H)-yl)acetamide], for which the 50% inhibitory concentration (IC50) was less than 100 nM.

For `O=C(Cn1c(-c2ccccc2)ncc(NCc2nnc(-c3ccccc3)s2)c1=O)NCc1cc2cnccc2[nH]1` [Compound 454, N-((1H-pyrrolo[3,2-c]pyridin-2-yl)methyl)-2-(6-oxo-2-phen-yl-5-(((5-phenyl-1,3,4-thiadia-zol-2-yl)methyl)amino)pyr-imidin-1(6H)-yl)acetamide], the IC50 was less than 100 nM.

As for `Cc1cnc(CNc2cnc(-c3ccccc3)n(CC(=O)NCc3cc4cnccc4[nH]3)c2=O)o1` [Compound 455, N-((1H-pyrrolo[3,2-c]pyridin-2-yl)methyl)-2-(5-(((5-methyl-oxazol-2-yl)methyl)amino)-6-oxo-2-phenylpyrimidin-1(6H)-yl)acetamide], the IC50 is less than 100 nM.

Consider `O=C(Cn1c(-c2ccccc2)ncc(NCc2cc(-c3ccccc3F)on2)c1=O)NCc1cc2cnccc2[nH]1` [Compound 456, N-((1H-pyrrolo[3,2-c]pyridin-2-yl)methyl)-2-(5-(((5-(2-fluorophenyl)isoxazol-3-yl)-methyl)amino)-6-oxo-2-phen-ylpyrimidin-1(6H)-yl)acet-amide], for which the concentration for half-maximal inhibition (IC50) was less than 100 nM.

Regarding `O=C(Cn1c(-c2ccccc2)ncc(NCc2cc(-c3ccccc3)no2)c1=O)NCc1cc2cnccc2[nH]1` [Compound 457, N-((1H-pyrrolo[3,2-c]pyridin-2-yl)methyl)-2-(6-oxo-2-phen-yl-5-(((3-phenylisoxazol-5-yl)methyl)amino)pyrimidin-1(6H)-yl)acetamide], the IC50 was less than 100 nM.

`O=C(Cn1c(-c2ccccc2)ncc(NCc2cc(-c3ccccc3)ns2)c1=O)NCc1cc2cnccc2[nH]1` [Compound 458, N-((1H-pyrrolo[3,2-c]pyridin-2-yl)methyl)-2-(6-oxo-2-phen-yl-5-(((3-phenylisothiazol-5-yl)methyl)amino)pyrimidin-1(6H)-yl)acetamide]: the IC50 was less than 100 nM.

Take `C[C@@H](Nc1cnc(N2CCCCC2)n(CC(=O)NCc2cc3cnccc3[nH]2)c1=O)c1coc(-c2ccccc2)n1` [Compound 460, (R)-N-((1H-pyrrolo[3,2-c]pyridin-2-yl)methyl)-2-(6-oxo-5-((1-(2-phenyloxazol-4-yl)-ethyl)amino)-2-(piperidin-1-yl)pyrimidin-1(6H)-yl)acet-amide]: the 50% inhibitory concentration (IC50) was 100 to 1000 nM.

Take `C[C@@H](Nc1cnc(N2CCOCC2)n(CC(=O)NCc2cc3cnccc3[nH]2)c1=O)c1coc(-c2ccccc2)n1` [Compound 461, (R)—N-((1H-Pyrrolo[3,2-c]pyridine-2-yl)methyl)-2-(2-morpholino-6-oxo-5-((1-(2-phenyloxazol-4-yl)ethyl)amino)pyrimidin-1(6H)-yl)acetamide]: the half-maximal inhibitory concentration (IC50) was less than 100 nM.

As to `C[C@@H](Nc1cnc(N2CCCCC2)n(CC(=O)NCc2cc3cnccc3[nH]2)c1=O)c1cnc(-c2ccccc2)s1` [Compound 462, (R)-N-((1H-pyrrolo[3,2-c]pyridin-2-yl)methyl)-2-(6-oxo-5-((1-(2-phenylthiazol-5-yl)ethyl)amino)-2-(piperidin-1-yl)pyrimidin-1(6H)-yl)acet-amide], the concentration for half-maximal inhibition (IC50) was less than 100 nM.

Turning to `C[C@@H](Nc1cnc(N2CCCCC2)n(CC(=O)NCc2cc3cnccc3[nH]2)c1=O)c1csc(-c2ccccc2)n1` [Compound 463, (R)-N-((1H-pyrrolo[3,2-c]pyridin-2-yl)methyl)-2-(6-oxo-5-((1-(2-phenylthiazol-4-yl)-ethyl)amino)-2-(piperidin-1-yl)-pyrimidin-1(6H)-yl)acetamide], the IC50 lay within 100 to 1000 nM.

Consider `CC(=O)N1CCN(c2ncc(N[C@H](C)c3ccc4oc5ccccc5c4c3)c(=O)n2CC(=O)NCc2cc3cnccc3[nH]2)CC1` [Compound 466, (R)-N-((1H-pyrrolo[3,2-c]pyridin-2-yl)methyl)-2-(2-(4-acetylpiperazin-1-yl)-5-((1-(dibenzo[b,d]furan-2-yl)ethyl)-amino)-6-oxopyrimidin-1(6H)-yl)acetamide], for which the IC50 is less than 100 nM.

With `COC[C@H]1CCCN(c2ncc(N[C@H](C)c3ccc4oc5ccccc5c4c3)c(=O)n2CC(=O)NCc2cc3cnccc3[nH]2)C1` [Compound 467, N-((1H-pyrrolo[3,2-c]pyridin-2-yl)methyl)-2-(5-(((R)-1-(dibenzo[b,d]furan-2-yl)ethyl)-amino)-2-((S)-3-(methoxy-methyl)piperidin-1-yl)-6-oxo-pyrimidin-1(6H)-yl)acetamide], the half-inhibitory concentration (IC50) was greater than 1000 nM.

With `C[C@@H](Nc1cnc(N2CCN(C(=O)C3CC3)CC2)n(CC(=O)NCc2cc3cnccc3[nH]2)c1=O)c1ccc2oc3ccccc3c2c1` [Compound 468, (R)-N-((1H-pyrrolo[3,2-c]pyridin-2-yl)methyl)-2-(2-(4-(cyclopropanecarbonyl)piper-azin-1-yl)-5-((1-(dibenzo[b,d]furan-2-yl)ethyl)amino)-6-oxopyrimidin-1(6H)-yl)acet-amide], the IC50 is 100 to 1000 nM.

With `COC[C@H]1CN(c2ncc(N[C@H](C)c3ccc4oc5ccccc5c4c3)c(=O)n2CC(=O)NCc2cc3cnccc3[nH]2)CCO1` [Compound 469, N-((1H-pyrrolo[3,2-c]pyridin-2-yl)methyl)-2-(5-(((R)-1-(dibenzo[b,d]furan-2-yl)ethyl)-amino)-2-((R)-2-(methoxy-methyl)morpholino)-6-oxo-pyrimidin-1(6H)-yl)acetamide], the half-inhibitory concentration (IC50) lay in the range of 100 to 1000 nM.

For the compound `C[C@@H](Nc1ncc(N2CCC(O)CC2)n(CC(=O)NCc2cc3cnccc3[nH]2)c1=O)c1ccc2oc3ccccc3c2c1` [Compound 470, (R)-N-((1H-pyrrolo[3,2-c]pyridin-2-yl)methyl)-2-(3-((1-(dibenzo[b,d]furan-2-yl)ethyl)-amino)-6-(4-hydroxypiperidin-1-yl)-2-oxopyrazin-1(2H)-yl)-acetamide], the IC50 was less than 100 nM.

For `C[C@@H](Nc1ncc(C2CCOCC2)n(CC(=O)NCc2cc3cnccc3[nH]2)c1=O)c1ccc2oc3ccccc3c2c1` [Compound 471, (R)—N-((1H-Pyrrolo[3,2-c]pyridine-2-yl)methyl)-2-(3-((1-(dibenzo[b,d]furan-2-yl)ethyl)amino)-2-oxo-6-(tetrahydro-2H-pyran-4-yl)pyrazin-1(2H)-yl)acetamide], the IC50 was less than 100 nM.

For the compound `O=C(Cn1c(N2CCCCC2)cnc(NCc2nnc(-c3ccccc3)s2)c1=O)NCc1cc2cnccc2[nH]1` [Compound 472, N-((1H-pyrrolo[3,2-c]pyridin-2-yl)methyl)-2-(2-oxo-3-(((5-phenyl-1,3,4-thiadiazol-2-yl)-methyl)amino)-6-(piperidin-1-yl)pyrazin-1(2H)-yl)acetamide], the IC50 was less than 100 nM.

For `O=C(Cn1c(N2CCCCC2)cnc(NCc2cc(-c3ccccc3)no2)c1=O)NCc1cc2cnccc2[nH]1` [Compound 473, N-((1H-pyrrolo[3,2-c]pyridin-2-yl)methyl)-2-(2-oxo-3-(((3-phenylisoxazol-5-yl)methyl)-amino)-6-(piperidin-1-yl)pyr-azin-1(2H)-yl)acetamide], the IC50 was less than 100 nM.

Regarding `Cc1cnc(CNc2ncc(N3CCCCC3)n(CC(=O)NCc3cc4cnccc4[nH]3)c2=O)o1` [Compound 474, N-((1H-pyrrolo[3,2-c]pyridin-2-yl)methyl)-2-(3-(((5-methyl-oxazol-2-yl)methyl)amino)-2-oxo-6-(piperidin-1-yl)pyr-azin-1(2H)-yl)acetamide], the IC50 is less than 100 nM.

For `C[C@@H](Nc1cnc(N2CCCCC2)n(CC(=O)NCc2cc3cnccc3[nH]2)c1=O)c1coc(-c2ccccc2F)n1` [Compound 475, (R)—N-((1H-Pyrrolo[3,2-c]pyridine-2-yl)methyl)-2-(5-((1-(2-(2-fluorophenyl)oxazol-4-yl)ethyl)amino)-6-oxo-2-(piperidin-1-yl)pyrimidin-1(6H)-yl) acetamide], the concentration for half-maximal inhibition (IC50) lay in the range of 100 to 1000 nM.

A word on the IC50: it is the midpoint of a concentration-inhibition curve.

The values are drawn from patent publication US20260184707A1, “PHARMACEUTICAL COMPOUNDS FOR THE TREATMENT OF COMPLEMENT MEDIATED DISORDERS” (ALEXION PHARMACEUTICALS, INC., priority 2022, published 2026).
